Source: PubChem BioAssay (NCI)
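Test compounds were applied to cells in 96-well plates for 48 hours at 5 doses. At the GI50, growth is halved. TGI is the concentration that stops growth completely.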

Experiments:
Assay in all cases: NCI-60 cell line screen, 48 h
ACHN renal = system: ACHN renal
HCT-15 colon = system: HCT-15 colon
MOLT-4 leukemia = system: MOLT-4 leukemia
CAKI-1 renal = system: CAKI-1 renal
HT29 colon = system: HT29 colon
SK-MEL-2 melanoma = system: SK-MEL-2 melanoma
UO-31 renal = system: UO-31 renal
NCI-H23 lung = system: NCI-H23 lung
EKVX NSCLC = system: EKVX NSCLC
A498 renal = system: A498 renal

SMILES	GI50 (ACHN renal) [µM]	TGI (ACHN renal) [µM]	GI50 (HCT-15 colon) [µM]	TGI (HCT-15 colon) [µM]	GI50 (MOLT-4 leukemia) [µM]	TGI (MOLT-4 leukemia) [µM]	GI50 (CAKI-1 renal) [µM]	TGI (CAKI-1 renal) [µM]	GI50 (HT29 colon) [µM]	TGI (HT29 colon) [µM]	GI50 (SK-MEL-2 melanoma) [µM]	TGI (SK-MEL-2 melanoma) [µM]	GI50 (UO-31 renal) [µM]	TGI (UO-31 renal) [µM]	GI50 (NCI-H23 lung) [µM]	TGI (NCI-H23 lung) [µM]	GI50 (EKVX NSCLC) [µM]	TGI (EKVX NSCLC) [µM]	GI50 (A498 renal) [µM]	TGI (A498 renal) [µM]
C=C1C(=O)O[C@H]2[C@H]1CC/C(COC(=O)N[C@@H](Cc1c[nH]c3ccccc13)C(=O)OC)=C\CC[C@@]1(C)O[C@@H]21	1.16	2.44	1.45	3.91	1.54	5.05	1.2	2.89	1.44	3.04	2.21	6.06	1.45	2.76	1.84	4.59	1.78	4.43	10.3	22.3
Cc1ccc(-c2nc3nc(-c4ccc(Cl)cc4)nc(N4CCCNCC4)c3o2)cc1	1.71	3.09	1.57	3.08	1.91	3.72	1.45	2.88	1.93	3.94	2.04	3.94	1.3	2.62	1.83	3.41	1.75	3.27	1.88	3.56
OCC1OC(O)C(N=Cc2ccc3c(c2)OCO3)C(O)C1O (stereo not given)	–	> 100	–	> 100	–	> 100	–	> 100	–	> 100	–	> 100	–	> 100	–	> 100	–	> 100	–	> 100
COc1ccc(C(=O)O)c2c(=O)c3ccccc3[nH]c12	–	> 100	–	> 100	–	> 100	–	> 100	–	> 100	–	> 100	–	> 100	–	> 100	–	> 100	–	> 100
c1cncc(-c2cc(-c3cc(-c4cccnc4)n[nH]3)[nH]n2)c1	–	> 100	–	> 100	–	> 100	–	> 100	–	> 100	–	> 100	–	> 100	–	> 100	–	> 100	–	> 100
O=C(Nc1ccc(N=Nc2ccccc2)cc1)Sc1ccccc1C(=O)O	–	> 100	–	> 100	–	> 100	–	> 100	–	> 100	–	> 100	–	> 100	–	> 100	–	> 100	–	> 100
CNC(=O)c1ccc(Nc2nc(OC3CCCC3)c3c(-c4ccc5nc(C)oc5c4)c[nH]c3n2)c(OC)c1	0.438	> 100	0.0689	> 100	1.63	> 100	0.448	> 100	4.99	> 100	> 51.3	> 100	2.97	> 100	4.55	> 100	> 100	> 100	0.547	> 100
CN(C)c1ccc2[nH]c(O)c(C=Nc3ccc(S(N)(=O)=O)cc3)c2c1	> 25	> 25	> 25	> 25	> 25	> 25	> 25	> 25	> 25	> 25	> 25	> 25	> 25	> 25	> 25	> 25	> 25	> 25	> 25	> 25
O=C1CC(c2ccccc2)NCN1 (stereo not given)	–	> 100	–	> 100	–	> 100	–	> 100	–	> 100	–	> 100	–	> 100	–	> 100	–	> 100	–	> 100
NC(=S)N/N=C1\C(=O)N(c2cccc([N+](=O)[O-])c2)C(=O)C1C(=O)Nc1cccc([N+](=O)[O-])c1 (stereo not given)	–	> 100	–	> 100	–	> 100	–	> 100	–	> 100	–	> 100	–	> 100	–	> 100	–	> 100	–	> 100
O=C1C=CC(=O)N1c1ccc2c(c1)Cc1cc(NC(=O)C(F)(F)F)ccc1-2	–	16.4	–	26.9	–	> 100	–	32.7	–	25.5	–	34.2	–	28.4	–	32.2	–	29.3	–	48.4
COc1cc2c(cc1OCCCCCN1CCN(c3cc(=O)oc4c(C)c(OC)ccc34)CC1)N=C[C@@H]1CCCN1C2=O	0.0434	0.256	0.552	4.42	< 0.01	0.0106	0.083	0.537	< 0.01	0.0428	< 0.01	< 0.0175	0.014	0.0383	< 0.0122	0.137	0.174	4.07	< 0.0127	0.0289
O[C@H]1[C@H]2[C@H](O)CCCN2C[C@H]1O	–	> 100	–	> 100	–	> 100	–	> 100	–	> 100	–	> 100	–	> 100	–	> 100	–	> 100	–	> 100
CN1CCN(Cc2ccc(NC(=O)c3[nH]ncc3Nc3ccnc4ccsc34)cc2)CC1	2.66	9.9	3.25	16.1	2.09	7.93	6.04	27.6	2.04	33.8	3.86	14.7	1.78	10.1	2.03	6.64	2.74	9.81	1.64	4.87
COc1cc2c3c(n(CCCn4ccnc4)c(=O)c2cc1OC)-c1ccccc1C3=O	< 0.0127	0.0486	0.159	2.37	< 0.01	< 0.0167	< 0.01	0.105	< 0.0406	0.603	0.927	17.3	< 0.0141	0.0551	< 0.0282	0.0695	0.833	> 100	0.0449	0.292
CC(=O)[CH-]C(C)=O.CC(=O)[CH-]C(C)=O.CC(=O)[CH-]C(C)=O.[Cl-].[Hf+4]	> 100	> 100	> 100	> 100	> 100	> 100	> 100	> 100	> 100	> 100	> 100	> 100	> 100	> 100	> 100	> 100	> 100	> 100	> 100	> 100
CC(=O)Oc1cc2c(=O)oc3c(OC(C)=O)c(OC(C)=O)c(OC(C)=O)c4c(=O)oc(c1OC(C)=O)c2c34	–	> 100	–	> 100	–	> 100	–	> 100	–	> 100	–	> 100	–	> 100	–	> 100	–	> 100	–	> 100
O=C1C(Br)=C(c2ccccc2)C(c2ccccc2)=C1c1ccccc1	–	6.51	–	4.03	–	3.74	–	6.06	–	5.15	–	14.4	–	12.8	–	10.5	–	18	–	29.9
CCOC(=O)c1ccc(C(O)CC(=O)OC(C)(C)C)[nH]1 (stereo not given)	41.5	> 100	34.4	> 100	17.2	> 100	21.6	87.2	59	> 100	21.3	41.3	38.5	> 100	44.4	> 100	22.7	49.6	23.7	> 100
